Results as given in patent publication US20180177749A1, “USE OF CYP EXPRESSION TO DIRECT THERAPEUTIC INTERVENTION IN CANCER” (REGENTS OF THE UNIVERSITY OF MINNESOTA, priority 2016, published 2018).

System: MDA-MB-231 xenograft
Assay: RPPA of protein expression, MDA-MB-231 xenograft endpoint analysis
Format: in vivo, nude mice
Details: 4 mg/kg/day vs. PBS
Description: Frozen xenograft tissue samples were embedded in OCT, and 8 μm sections were obtained using a cryostat. […] The resulting whole tissue lysates were boiled for 8 min at 100° C. and then printed onto a nitrocellulose slide (Avid, Grace Biolabs) along with a BSA protein concentration curve to estimate total protein concentration in each lysate. Total protein levels were assessed in each sample by staining with Sypro Ruby Protein Blot Stain (Invitrogen) according to manufacturer's instructions.
The total protein concentration in each sample was estimated by printing onto a nitrocellulose slide along with a BSA standard concentration curve, and total protein levels were assessed by staining with Sypro Ruby Protein Blot Stain (Invitrogen) according to manufacturer's instructions. Tissue lysates were diluted to 250 μg/ml in extraction buffer and stored at −80° C. prior to printing of arrays. RPPA printing and analysis of xenograft samples was conducted as previously described (Wulfkuhle et al., Clin Cancer Res. 2012; 18:6426-35). Antibody staining intensities were quantified using the MicroVigene v5 Software Package (Vigenetech). Signaling pathway activation was evaluated by staining the arrays with 156 antibodies against signaling endpoints, mainly phosphorylated and cleaved protein products. Before use for RPPA analysis, antibody specificity was confirmed by Western blot and analysis as previously described (Wulfkuhle et al., Clin Cancer Res. 2012; 18:6426-35).

[1] = *separate RPPA analysis, separate β actin probe

`CCCCCCNC(=N)NC(=N)NCc1ccccc1` [HBB, N1-hexyl-N5-benzyl-biguanide] was tested, and the “fold change: 4EBP1 S65” value was 1.143, the “fold change: 4EBP1 T37/46” value was 0.828 and the “fold change: 4EBP1 T70” value was 1.117. The “fold change: A-Raf S299” value was 1.335, the “fold change: AKT S473” value was 1.795 and the “fold change: AKT T308” value was 1.987. The “fold change: ALK” value was 1.368, the “fold change: ALK Y1604” value was 1.302 and the “fold change: AMPKalpha S485” value was 2.359. For the same compound, the “fold change: AMPKbeta S108” value was 1.081, the “fold change: ATF2 T69/71” value was 0.959 and the “fold change: ATM S1981” value was 1.438. The “fold change: ATP CItrate Lyase S454” value was 1.229, the “fold change: ATR S428” value was 1.345 and the “fold change: AXL” value was 1.199. For the same compound, the “fold change: Acetyl-CoA Carboxylase S79” value was 1.295, the “fold change: Actin beta” value was 1.000 and the “fold change: Aurora A T288/B T232/C T198” value was 1.651. For the same compound, the “fold change: B-RAF” value was 1.341, the “fold change: B-Raf S445” value was 1.392 and the “fold change: BAD” value was 1.198. For the same compound, the “fold change: BAD S112” value was 1.355, the “fold change: BAD S136” value was 1.550 and the “fold change: BCL-2” value was 1.315. For the same compound, the “fold change: BIM” value was 1.211, the “fold change: Bak” value was 1.254 and the “fold change: Bax” value was 1.132. The “fold change: Bcl_xL” value was 1.275, the “fold change: Beclin 1” value was 1.235 and the “fold change: CREB S133” value was 1.164. The “fold change: Cl Caspase 3 D175” value was 1.484, the “fold change: Cl Caspase 9 D315” value was 1.437 and the “fold change: Cl Caspase 9 D330” value was 1.492. The “fold change: Cleaved PARP D214” value was 1.223, the “fold change: Cofilin S3” value was 1.783 and the “fold change: CrkL Y207” value was 1.186. For the same compound, the “fold change: Cyclin A” value was 1.513, the “fold change: Cyclin B1 V152” value was 1.294 and the “fold change: Cyclin D1 (G124-326)” value was 1.272. For the same compound, the “fold change: Cyclin D1 T286” value was 1.693, the “fold change: E-Cadherin” value was 1.903 and the “fold change: EGFR” value was 1.184. For the same compound, the “fold change: EGFR Y992” value was 1.970, the “fold change: EGFR Y1068” value was 1.557 and the “fold change: EGFR Y1148” value was 1.407. The “fold change: EGFR Y1173” value was 1.388, the “fold change: ER TOTAL” value was 1.304 and the “fold change: ER alpha S118” value was 1.293. The “fold change: ERK 1-2 T202/Y204” value was 1.337, the “fold change: ERK TOTAL” value was 1.242 and the “fold change: Elk S383” value was 1.926. The “fold change: Ephrin A3 Y799/A4 Y799/A5 Y833” value was 1.553, the “fold change: ErbB2/HER2 Y877” value was 1.283 and the “fold change: ErbB2/HER2 Y1248” value was 1.717. The “fold change: ErbB3/HER3” value was 0.828, the “fold change: ErbB3/HER3 Y1197” value was 1.363 and the “fold change: ErbB3/HER3 Y1289” value was 1.558. For the same compound, the “fold change: FAK Y576/577” value was 1.291, the “fold change: FKHR T24/FKHRL1 T32” value was 1.039 and the “fold change: FKHRL1 S253” value was 1.671. The “fold change: FOXO1 S256” value was 1.338, the “fold change: GRB2” value was 1.013 and the “fold change: GSK-3alpha/beta S21/9” value was 1.294. The “fold change: HIF-1 alpha” value was 1.096, the “fold change: HSP27 S82” value was 0.821 and the “fold change: HSP70” value was 1.429. For the same compound, the “fold change: HSP90a T5/7” value was 1.555, the “fold change: Heregulin” value was 0.654 and the “fold change: Histone H3 S28” value was 1.222. The “fold change: IGF1R Y1135/36-IR Y1150/51” value was 1.118, the “fold change: IGF-1R Y1131/IR Y1146” value was 1.596 and the “fold change: IGFBP7” value was 1.180. The “fold change: IL6” value was 1.192, the “fold change: IRS1” value was 0.996 and the “fold change: IkappaB-alpha S32/36” value was 1.317. For the same compound, the “fold change: Insulin Receptor Beta” value was 1.219, the “fold change: Jak2 Y1007” value was 1.647 and the “fold change: KI67” value was 1.120. For the same compound, the “fold change: LC3B” value was 1.109, the “fold change: LIMK1 T508/LIMK2 T505” value was 1.351 and the “fold change: LKB1 S428” value was 1.652. For the same compound, the “fold change: MARCKS S152/156” value was 1.421, the “fold change: MCSFR Y723” value was 1.215 and the “fold change: MDM2 S166” value was 1.189. For the same compound, the “fold change: MEK 1/2 S217/221” value was 1.772, the “fold change: Met Y1234/1235” value was 1.556 and the “fold change: Musashi” value was 1.320. The “fold change: NF-kappaB p65 S536” value was 1.655, the “fold change: PAK1 S199/204-PAK2 S192/197” value was 1.852 and the “fold change: PAK1 T423/PAK2 T402” value was 1.245. For the same compound, the “fold change: PDGFR alpha Y754” value was 1.266, the “fold change: PDGFR beta” value was 1.147 and the “fold change: PDGFR beta Y716” value was 0.981. For the same compound, the “fold change: PDK1 S241” value was 1.118, the “fold change: PDL1” value was 0.548 and the “fold change: PKC delta/theta S643/S676” value was 1.447. The “fold change: PKC zeta/lambda T410/403” value was 0.971, the “fold change: PLK1 T210” value was 1.301 and the “fold change: PTEN” value was 1.334. The “fold change: PTEN S380” value was 1.440, the “fold change: RAS TOTAL” value was 1.486 and the “fold change: Ras_GRF1” value was 1.237. For the same compound, the “fold change: Rb S780” value was 1.516, the “fold change: Ret Y905” value was 1.885 and the “fold change: Ros Y2274” value was 1.481. For the same compound, the “fold change: S6 Ribosomal Protein S240/244” value was 0.457, the “fold change: SAPK/JNK T183/Y185” value was 1.410 and the “fold change: SGK1 S78” value was 1.510. The “fold change: SMAD2 S245/250/255” value was 1.425, the “fold change: STAT3 S727” value was 1.302 and the “fold change: Shc Y317” value was 1.307. The “fold change: Src Y527” value was 1.356, the “fold change: Src family Y416” value was 0.804 and the “fold change: Stat 1 Y701” value was 1.092. The “fold change: Stat3 Y705” value was 1.421, the “fold change: Stat 5 Y694” value was 0.929 and the “fold change: TGF-beta” value was 1.188. For the same compound, the “fold change: TNF alpha” value was 1.119, the “fold change: Tuberin/TSC2 Y1571” value was 1.417 and the “fold change: VEGFR2 Y996” value was 1.205. The “fold change: Vimentin” value was 1.021, the “fold change: XIAP” value was 1.311 and the “fold change: c-Abl T735” value was 1.596. The “fold change: c-Abl Y245” value was 1.215, the “fold change: c-ErbB2/HER2” value was 1.184 and the “fold change: c-Kit Y703” value was 1.408. For the same compound, the “fold change: c-Met TOTAL” value was 1.220, the “fold change: c-Myc” value was 1.078 and the “fold change: c-Raf S338” value was 1.229. The “fold change: eIF4G S1108” value was 1.471, the “fold change: mTOR” value was 0.679 and the “fold change: mTOR S2448” value was 1.515. The “fold change: p27 Kip1” value was 1.253, the “fold change: p27 T187” value was 1.152 and the “fold change: p38 MAP Kinase T180/Y182” value was 1.075. The “fold change: p53” value was 1.390, the “fold change: p53 S15” value was 1.586 and the “fold change: p70S6 Kinase” value was 1.193. The “fold change: p70 S6 Kinase S371” value was 1.621, the “fold change: p70 S6 Kinase T389” value was 2.148 and the “fold change: p70 S6 Kinase T412” value was 1.352. The “fold change: p90RSK T359/S363” value was 1.248, the “fold change: pYAP S127” value was 1.022 and the “fold change: AMPK T172*” value [1] was 3.561. For the same compound, the “fold change: AMPK total*” value [1] was 0.555, the “fold change: PKM2 Y105*” value [1] was 1.403 and the “fold change: PKM2 total*” value [1] was 1.339.
